# Starred links: 1 amine or outer side, 2 acyl side, 3 side chain; linkers in the order of their positions; H or OH if unused. Positions of bridges follow the written chain, without caps; N, C: chain ends. Non-standard residues stand in square brackets, D forms with d. Residues, ends and D or L forms follow the SMILES beside them. Chains are numbered I, II in the order given. Actinocin(9to1) = Cc1c2oc3c(C)ccc(C(=O)[*:1])c3nc-2c(C(=O)[*:2])c(N)c1=O; NMeV = CN[C@H](C(=O)O)C(C)C; Sar = CNCC(=O)O
# Legend:
# [1] = tested on: calvaria-derived murine osteoblastic cells; assay: Etoposide-induced apoptosis of calvaria-derived osteoblastic cells; type: cell-based, mouse; conditions: for difference in potency in osteoblasts from one sex versus the other: cell preparations from females or males; for etoposide-induced apoptosis in primary cultures of osteoblasts: cells from female or male mice, dose dependent manner; for effect of synthesis inhibitor on the protective effect of E2 on etoposide-induced apoptosis: murine calvaria derived osteoblasts, doses not affecting cell viability, data not shown
# Description: HeLa cells were co-transfected with reporter constructs in which SRE or AP-1 drive the expression of secreted alkaline phosphatase (SEAP), along with the wild type ERα (A and B); or its ligand binding domain (E), or E fused to a membrane (E-Mem) or nuclear (E-Nuc) localization sequence (A). A dominant negaitve (dn) MEK or dn Jnk were also introduced into a subset of the ERα transfected cells. […] In FIGS. 1A and 1B, 100% indicates activity in vehicle treated cells. (C) HeLa cells were co-transfected with the ERα and nEGFP and wild type or dn mutants of the indicated transcription factors. […] (D) HeLa cells (upper panel) were transiently co-transfected with the ERα, a nonphosphorylatable dn mutant of Bad. Calvaria-derived murine osteoblastic cells (lower panel) were pre-treated with the P13K inhibitor wortmannin. Cells were then treated as in (C). […] (E) Proposed model for a kinase-mediated non-genotropic regulation of gene transcription and apoptosis by sex steroids.
# (§1) Osteoblastic cells (A) were isolated from calvaria of neonatal female or male mice, the sex of which was determined by Southern blot analysis of liver DNA with a Y chromosome specific cDNA probe; and cultured as previously described. The ability of the indicated steroids to protect against etoposide induced apoptosis was determined as in FIG. 1D, lower panel. (B) Osteoclasts were generated in bone marrow cultures from adult female or male mice, and then treated with vehicle or the indicated concentrations of steroids for 24 hours at which point the number of cells undergoing apoptosis was determined. Representative results from 1 of 4 females and 1 of 4 males examined are shown. Each point represents the mean of triplicate determinations±SD. *p<0.05 vs. vehicle, by ANOVA. (C & D) Eight-month old Swiss Webster mice (n=8-10 per group) were sham-operated, ovariectomized (OVX) or orchidectomized (ORX). […] BMD and wet uterine or seminal vesicle weight was determined six weeks later. Bars indicate means±SD. *p<0.05 vs OVX or ORX.
# (§2) Quantification of apoptotic cells in vitro: Apoptosis of HeLa cells or calvaria-derived osteoblastic cells was quantified by direct visualization of changes in nuclear morphology or by trypan blue staining, respectively, as previously described (Kousteni et al, 2001). Apoptosis of osteoclasts, derived from bone marrow cells cultured with 30 ng/ml M-CSF and 30 ng/ml soluble RANK ligand, was quantified by measuring caspase 3 activity as previously described (Weinstein et al, 2002).
# [2] = tested on: osteoclasts generated in bone marrow cultures from adult female or male mice; assay: Osteoclast apoptosis in bone marrow derived cultures; type: cell-based, mouse
# Description: as §1
# FIG. 8 illustrates the pro-apoptotic effect of sex steroids on osteoclasts requires Src/ERK signaling. […] After 24 hours, the percentage of apoptotic osteoclasts was determined as in FIG. 7.
# as §2
# [3] = tested on: OVX or ORX Swiss Webster mice; assay: Gonadectomized (OVX or ORX) Swiss Webster mice with 60-day slow release pellets: bone and reproductive tissues; type: in vivo, mouse; conditions: for gonadectomy-induced changes (osteoblast apoptosis, loss of BMD, osteoblastogenesis and osteoclastogenesis): replacement dose pellets (E2 0.025 mg, DHT 10 mg), OVX or ORX, irrespective of sex
# Description: as §1
# FIG. 9 illustrates the equivalence of the skeletal actions of estrogens and androgens in female and male mice. […] Six weeks later, osteoblast apoptosis in histologic sections of the vertebrae (A), osteoblastogenesis and osteoclastogenesis in ex vivo bone marrow cultures (B and C), and serum osteocalcin concentration (D) were determined. Bars indicate means±SD, *p<0.05 vs OVX or ORX.
# Global, spine and hindlimb BMD was determined at both 4 and 6 weeks later in the experiment with the 8 month old females, and at 6 weeks only in the experiments with the 6 month old females and males (A, B and C). The 6 week BMD data in females (B) represent pooled values from the two experiments with the 6- and the 8-month old mice.
# Longitudinal undecalcified sections of the distal femur are shown in (B). […] Osteoblast apoptosis in sections of L1-L4 vertebrae from females (8 month old) and males (C).
# Histomorphometric analysis of L1-L4 vertebrae from 6 month old females (A-F) and pooled serum osteocalcin levels from the 6 and 8 month old females (G). […] The ANGELS compounds described herein are useful for maintaining and/or increasing bone mass and/or strength and/or density in mammals. Mammals, preferably humans, in need of such compounds can include those suffering from such conditions as female osteoporosis (post menopausal), male osteoporosis, glucocorticoid-induced osteoporosis, immobilization and aging-related osteoporosis, idiopathic or juvenile osteoporosis, transplantation-related osteoporosis, and alveolar ridge bone loss. In addition, the compounds described herein are particularly useful for administration to subjects that are unable or unwilling to tolerate therapies that have a masculinizing or feminizing effect. For example, subjects such as breast cancer patients (especially those with bone metastasis on gonadotropin […] hormone (GnRH) or ovariectomized), prostrate cancer patients (especially those on GnRH/castration therapy), and myeloma/lymphoma patients are frequently poor candidates for treatment with estrogen or androgens because of the risk of a recurrence of the underlying condition, e.g., cancer.
# Wet uterine (A) or seminal vesicle weight (B) of female and male mice described in FIG. 11. […] Note the following morphologic differences in the uteri of OVX- and OVX+4-estren-3α,17β-diol-treated mice as compared to uteri from sham-operated and OVX+E2-treated mice: thin and atrophic columnar epithelium; compact stroma; decreased number of glands; decreased nucleus to cytoplasmic ratio in the columnar epithelial, endometrial stroma, and myometrial cells; and absence of mitotic activity. (D) Proliferation of MCF-7 cells was determined by ^3H-thymidine uptake.
# For these studies, mature Swiss Webster mice (8 month old), n=8-10 per group, were sham-operated or gonadectomized (GNDX). […]
# [4] = tested on: cells from mice lacking both ERα and ERβ (DERKO); conditions: cited from earlier work
# DERKO mice = conditions: mouse, in vivo; cited from earlier work
# Bad = assay: E2-induced phosphorylation of Bad; type: cell-based; conditions: studies not shown (Kousteni et al, 2002)
# ERα = biological target: T1, ERα (Homo sapiens, UniProt P03372); assay: SRE-SEAP and AP-1-SEAP reporter assays in HeLa cells transfected with ERα; type: cell-based; conditions: steroids 10^−8 M for 15 minutes (E2 as little as five minutes), SEAP six hours later
# T1 construct: HeLa cells transfected with the full length ERα; expressed in transfected cells; host or cells: HeLa
# T1 sequence (P03372 whole entry): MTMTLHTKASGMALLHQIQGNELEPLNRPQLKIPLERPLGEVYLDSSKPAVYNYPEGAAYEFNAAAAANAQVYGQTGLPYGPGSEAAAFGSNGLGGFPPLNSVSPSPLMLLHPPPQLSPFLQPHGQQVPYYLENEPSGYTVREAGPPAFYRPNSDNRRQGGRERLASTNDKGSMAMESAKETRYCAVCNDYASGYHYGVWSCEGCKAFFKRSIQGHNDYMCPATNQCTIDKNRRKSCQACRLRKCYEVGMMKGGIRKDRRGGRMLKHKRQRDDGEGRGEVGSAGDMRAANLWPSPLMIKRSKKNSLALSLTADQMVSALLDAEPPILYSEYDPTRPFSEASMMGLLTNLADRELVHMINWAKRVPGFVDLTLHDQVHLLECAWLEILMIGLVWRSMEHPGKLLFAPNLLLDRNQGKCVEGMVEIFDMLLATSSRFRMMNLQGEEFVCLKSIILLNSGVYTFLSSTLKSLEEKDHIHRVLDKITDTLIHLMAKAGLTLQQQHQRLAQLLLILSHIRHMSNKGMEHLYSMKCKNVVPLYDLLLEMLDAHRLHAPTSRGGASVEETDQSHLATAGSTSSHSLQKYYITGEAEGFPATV
# Description: HeLa cells were co-transfected with reporter constructs in which SRE or AP-1 drive the expression of secreted alkaline phosphatase (SEAP), along with the wild type ERα (A and B); or its ligand binding domain (E), or E fused to a membrane (E-Mem) or nuclear (E-Nuc) localization sequence (A). A dominant negaitve (dn) MEK or dn Jnk were also introduced into a subset of the ERα transfected cells. Cells were exposed to vehicle or the indicated steroids (10^−8M) for 15 minutes. The steroid containing media were then removed, the cells were washed twice, and the cultures were continued in fresh medium without steroids. Supernatants were collected six hours later and SEAP activity was assayed. In FIGS. 1A and 1B, 100% indicates activity in vehicle treated cells. (C) HeLa cells were co-transfected with the ERα and nEGFP and wild type or dn mutants of the indicated transcription factors. […] (D) HeLa cells (upper panel) were transiently co-transfected with the ERα, a nonphosphorylatable dn mutant of Bad. […] Cells were then treated as in (C).
# Transient transfections and reporter assays: HeLa cells were transfected using Lipofectamine Plus (Life Technologies Inc.). For reporter assays (luciferase or secreated alkaline phosphatase SEAP), serum-starved cells were treated with the indicated steroids for 15 min after which the steroid-containing media were removed, cells washed twice with 1% BSA in PBS, and fresh media without steroid were added. SEAP or luciferase assays were performed 6 h later using the Great EscAPe SEAP Chemiluminescence Kit (Clontech, Palo Alto, Calif.) or the dual luciferase Kit (Promega, Madison, Wis.), respectively, according to the manufacturer's instructions. Both reporter activities were normalized to renilla luciferase activity.
smiles,measurement,setting,value
"C[C@]12CCC(=O)C[C@@H]1CC[C@@H]1[C@@H]2CC[C@]2(C)[C@@H](O)CC[C@@H]12 [DHT, dyhydrotestosterone]",difference in potency in osteoblasts from one sex versus the other,[1],no difference
same,etoposide-induced apoptosis in primary cultures of osteoblasts,[1],attenuated etoposide-induced apoptosis
same,difference in potency in osteoclasts from females and males,[2],no difference
same,"bone compression strength in the vertebrae, male mice","[3]; L5, ORX",equally effective
same,BMD values in the spine versus the untreated ORX group,"[3]; ORX males, 6 weeks",not
same,wet uterine weight,"[3]; OVX females, pellets DHT 10 mg or 4-estren-3α,17β-diol 7.6 mg",did restore
same,"gonadectomy-induced changes (osteoblast apoptosis, loss of BMD, osteoblastogenesis and osteoclastogenesis)",[3],effectively prevented
"C[C@]12CC[C@@H]3c4ccc(O)cc4CC[C@H]3[C@@H]1CC[C@@H]2O [E2, 17β-estradiol]",difference in potency in osteoblasts from one sex versus the other,[1],no difference
same,etoposide-induced apoptosis in primary cultures of osteoblasts,[1],attenuated etoposide-induced apoptosis
same,difference in potency in osteoclasts from females and males,[2],no difference
same,effect on the bone marrow cavity,"[3]; 4-estren-3α,17β-diol 7.6 mg pellet, E2 pharmacologic dose 100× the replacement dose",closing the bone marrow cavity
same,longitudinal undecalcified sections of the distal femur,"[3]; 4-estren-3α,17β-diol at 300× ERT versus vehicle or E2 1× ERT, E2 at 100× ERT",cancellous sclerosis
same,seminal vesicle weight,"[3]; ORX males, pellets E2 0.025 mg or 4-estren-3α,17β-diol 7.6 mg",failed to restore
same,osteoclast number,[3]; as compared to the OVX group,suppressed
same,rate of bone formation,[3]; as compared to the OVX group,suppressed
same,"gonadectomy-induced changes (osteoblast apoptosis, loss of BMD, osteoblastogenesis and osteoclastogenesis)",[3],effectively prevented
same,ERK phosphorylation in DERKO cells,[4],stimulates
same,osteoblast apoptosis in DERKO cells,[4],prevents
same,osteoclast apoptosis in DERKO cells,[4],stimulates
same,bone loss following OVX in DERKO mice,DERKO mice,prevented
"C[C@]12CC[C@@H]3c4ccc(O)cc4C[C@@H](CCCCCCCCC[S+]([O-])CCCC(F)(F)C(F)(F)F)[C@H]3[C@@H]1CC[C@@H]2O (stereo partly drawn) [ICI 182,780]",effect of antagonist on the effects of E2 or DHT on the lifespan of osteoblasts,[1],blocked
same,effect of antagonist on the effects of E2 or DHT on the lifespan of osteoclasts,[2],blocked
same,effect of antagonist on the effects of E2 in the DERKO cells,[4],prevented
COc1cccc(-c2cc(=O)c3ccccc3o2)c1N [PD98059],effect of inhibitor on E2-induced phosphorylation of Bad,Bad,abolished
Cc1ccc(-c2nn(C(C)(C)C)c3ncnc(N)c23)cc1 [PP1],"effect of inhibitor on the pro-apoptotic effects of the sex steroids and 4-estren-3α,17β-diol on osteoclasts",[2]; pre-treatment for 1 hour prior to E2 or DHT,abrogated
C[S+]([O-])c1ccc(-c2nc(-c3ccncc3)c(-c3ccc(F)cc3)[nH]2)cc1 (stereo not drawn) [SB203580],"effect of kinase inhibitor on the anti-apoptotic effect of E2 and of 4-estren-3α,17β-diol","[1]; FIG. 1D, pre-treated calvaria-derived murine osteoblastic cells",not
"Cc1c2oc3c(C)ccc(C(=O)N[C@@H]4C(=O)N[C@H](C(C)C)C(=O)N5CCC[C@H]5C(=O)N(C)CC(=O)N(C)[C@@H](C(C)C)C(=O)O[C@@H]4C)c3nc-2c(C(=O)N[C@@H]2C(=O)N[C@H](C(C)C)C(=O)N3CCC[C@H]3C(=O)N(C)CC(=O)N(C)[C@@H](C(C)C)C(=O)O[C@@H]2C)c(N)c1=O [actinomycin D] (I: T[dV]P[Sar][NMeV] / II: T[dV]P[Sar][NMeV]; ester I:1-I:C, II:1-II:C; linker I:N-II:N via Actinocin(9to1))",effect of synthesis inhibitor on the protective effect of E2 on etoposide-induced apoptosis,[1],abrogated
C[C@@H]1C[C@@H]([C@H](O)CC2CC(=O)NC(=O)C2)C(=O)[C@@H](C)C1 [cyclohexamide],effect of synthesis inhibitor on the protective effect of E2 on etoposide-induced apoptosis,[1],abrogated
c1cn[nH]c1 [pyrazole],AP-1-dependent transcriptional activity (AP-1-SEAP),ERα,not
same,SRE-dependent transcriptional activity (SRE-SEAP),ERα,not

# Source: patent US20030119800A1, “Bone anabolic compounds and methods of use” (priority 2001, published 2003)
